{"source": "patent US8288445B2", "about": "“Stable pharmaceutical products” (Nycomed GmbH, priority 2003, dated 2012)", "origin": "cited, not measured here", "conditions": "disclosed in U.S. Pat. No. 6,268,533 and WO 00/21487", "data": [{"smiles": "COc1ccc(C[C@@H](C)NC[C@H](O)c2ccc(O)c(NC=O)c2)cc1.O=C(O)C(O)C(O)C(=O)O", "note": "[L-(+)-tartrate salt of R,R-formoterol]", "values": [{"measurement": "hygroscopicity", "result": "non-hygroscopic"}]}]}
